From patent US11673910B2, “Macrolides with modified desosamine sugars and uses thereof” (Zikani Therapeutics, Inc., priority 2017, dated 2023) come the findings set out here.

In general, MIC refers to the lowest concentration that inhibits growth of the organism. A high value points to a need for much substance.

What all share (type): cell-based
Test [1] has as its system P. aeruginosa strain MP-3. Nature of the test: Broth dilution MIC determination (CLSI) against P. aeruginosa strain MP-3. The note with it: Pseudomonas aeruginosa, MP3. A digest of the protocol: (§1)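 Growth inhibition endpoint determined under CLSI broth dilution conditions. Categorical MIC output in mg/L: +++ (≤4), ++ (≥8, <32), + (≥32).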
(Dilution methods test growth across graded concentrations, often in twofold steps.)

The next test deals with S. aureus strain MP-12. The test is described as follows: Broth dilution MIC determination (CLSI) against S. aureus strain MP-12. Particulars: Staphylococcus aureus, MP12, strain MP-12. In short, it runs like this: as §1
Test [2] deals with A. baumannii strain MP-15. The test is described as follows: Broth dilution MIC determination (CLSI) against A. baumannii strain MP-15. The note with it: Acinetobacter baumannii, MP15. In short, it runs like this:
as §1

The test system of another test is E. coli strain MP-4. Nature of the test: Broth dilution MIC determination (CLSI) against E. coli strain MP-4. Particulars: Escherichia coli, MP4. A digest of the protocol: as §1
The test system of test [3] is K. pneumoniae strain MP-548. Nature of the test: Broth dilution MIC determination (CLSI) against K. pneumoniae strain MP-548. The note with it: Klebsiella pneumoniae, MP548. In short, it runs like this: as §1

Converted amounts (≈) assume the structure as drawn.

For `CC[C@H]1OC(=O)C(C)C(=O)[C@H](C)[C@@H](OC2OC(CN[C@@H]3C[C@H]3C)CC(N(C)C)C2O)[C@](C)(OC)C[C@@H](C)CN[C@H](C)[C@H]2NC(=O)O[C@@]21C` (stereo partly drawn) [Compound 134, 3-Descladinosyl-3-oxo-6-O-methyl-N9a-desmethyl-11,12-dideoxy-12,11-(oxycarbonylimino)-6′-((1″R,2″R)-2″-methylcyclopropyl)amino Azithromycin], the MIC in test [1] is no less than 32 µg/mL; against S. aureus strain MP-12, no less than 32 µg/mL; in test [2], 8 to 32 µg/mL (≈ 11.7 to 46.9 µM); in the test with E. coli strain MP-4 it was no more than 4 µg/mL; in test [3] it was no more than 4 µg/mL.
In the case of `CC[C@H]1OC(=O)C(C)C(=O)[C@H](C)[C@@H](OC2OC(CNC3CC3)CC(N(C)C)C2O)[C@](C)(OC)C[C@@H](C)C(=O)N[C@H](C)[C@H]2NC(=O)O[C@@]21C` (stereo partly drawn) [Compound 189, 3-Descladinosyl-3-oxo-6-O-methyl-8-oxo-N9a-desmethyl-11,12-dideoxy-12,11-(oxycarbonylimino)-6′-cyclopropylamino Azithromycin], the MIC (in test [1]; in the test on S. aureus strain MP-12; in test [2]; in the test on E. coli strain MP-4; in test [3]) was no less than 32 µg/mL in each case.
With `CC[C@H]1OC(=O)C(C)C(=O)[C@H](C)[C@@H](O[C@@H]2O[C@H](CN(C)C(=O)CN(C)C)CC(N(C)C)[C@H]2O)[C@](C)(OC)C[C@@H](C)CN[C@H](C)[C@H]2NC(=O)O[C@@]21C` (stereo partly drawn) [Compound 171, 3-Descladinosyl-3-oxo-6-O-methyl-N9a-desmethyl-11,12-dideoxy-12,11-(oxycarbonylimino)-6′-N-methyl-2″-dimethylamino-acetamide Azithromycin], the minimum inhibitory concentration (MIC) in test [1] is no less than 32 µg/mL; in the test with S. aureus strain MP-12, no less than 32 µg/mL; in test [2], no less than 32 µg/mL; against E. coli strain MP-4 it was no more than 4 µg/mL; in test [3] it was no less than 32 µg/mL.
`CC[C@H]1OC(=O)C(C)C(=O)[C@H](C)[C@@H](O[C@@H]2O[C@H](CCC(C)C)CC(N(C)C)[C@H]2O)[C@](C)(OC)C[C@@H](C)CN[C@H](C)[C@H]2NC(=O)O[C@@]21C` (stereo partly drawn) [Compound 183, 3-Descladinosyl-3-oxo-6-O-methyl-N9a-desmethyl-11,12-dideoxy-12,11-(oxycarbonylimino)-6′-isobutyl Azithromycin]: the MIC in test [1] is no less than 32 µg/mL; with S. aureus strain MP-12, 8 to 32 µg/mL (≈ 11.9 to 47.8 µM); in test [2], 8 to 32 µg/mL (≈ 11.9 to 47.8 µM); with E. coli strain MP-4, 8 to 32 µg/mL (≈ 11.9 to 47.8 µM); in test [3], no less than 32 µg/mL.
As for `CC[C@H]1OC(=O)C(C)C(=O)[C@H](C)[C@@H](O[C@@H]2OC(CNCc3cccc(-c4cncnc4)c3)CC(N(C)C)C2O)[C@](C)(OC)C[C@@H](C)CN[C@H](C)[C@H]2NC(=O)O[C@@]21C` (stereo partly drawn) [Compound 20], the MIC in test [1] was no less than 32 µg/mL; with S. aureus strain MP-12 it was no less than 32 µg/mL; in test [2] it was no less than 32 µg/mL; against E. coli strain MP-4, no more than 4 µg/mL; in test [3], no less than 32 µg/mL.
As for `CC[C@H]1OC(=O)C(C)C(=O)[C@H](C)[C@@H](OC2OC(CN(C)C)CC(N(C)C)C2O)[C@](C)(OC)C[C@@H](C)CN(C)[C@H](C)[C@H]2NC(=O)O[C@@]21C` (stereo partly drawn) [Compound 159, 3-Descladinosyl-3-oxo-6-O-methyl-11,12-dideoxy-12,11-(oxycarbonylimino)-6′-dimethylamino Azithromycin], the MIC in test [1] was no less than 32 µg/mL; against S. aureus strain MP-12, no less than 32 µg/mL; in test [2] it was no less than 32 µg/mL; against E. coli strain MP-4, no more than 4 µg/mL; in test [3], 8 to 32 µg/mL (≈ 11.9 to 47.7 µM).
Turning to `CC[C@H]1OC(=O)C(C)C(=O)[C@H](C)[C@@H](OC2OC(CNC3(C)CC3)CC(N(C)C)C2O)[C@](C)(OC)C[C@@H](C)CN[C@H](C)[C@H]2NC(=O)O[C@@]21C` (stereo partly drawn) [Compound 133, 3-Descladinosyl-3-oxo-6-O-methyl-N9a-desmethyl-11,12-dideoxy-12,11-(oxycarbonylimino)-6′-(1-methyl-1-cyclopropylamino) Azithromycin], the MIC is no less than 32 µg/mL in test [1]; 8 to 32 µg/mL (≈ 11.7 to 46.9 µM) in the test with S. aureus strain MP-12; 8 to 32 µg/mL (≈ 11.7 to 46.9 µM) in test [2]; no more than 4 µg/mL in the test with E. coli strain MP-4; 8 to 32 µg/mL (≈ 11.7 to 46.9 µM) in test [3].
Consider `CCCCCCCCCCNCC1CC(N(C)C)C(O)[C@H](O[C@@H]2[C@@H](C)C(=O)C(C)C(=O)O[C@H](CC)[C@@]3(C)OC(=O)N[C@@H]3[C@@H](C)NC[C@H](C)C[C@@]2(C)OC)O1` (stereo partly drawn) [Compound 55], for which the MIC in test [1] was no less than 32 µg/mL; against S. aureus strain MP-12, no less than 32 µg/mL; in test [2], no less than 32 µg/mL; in the test with E. coli strain MP-4 it was 8 to 32 µg/mL (≈ 10.4 to 41.6 µM); in test [3], no less than 32 µg/mL.
For the compound `CC[C@H]1OC(=O)C(C)C(=O)[C@H](C)[C@@H](OC2OC(CNCCOC)CC(N(C)C)C2O)[C@](C)(OC)C[C@@H](C)CN[C@H](C)[C@H]2NC(=O)O[C@@]21C` (stereo partly drawn) [Compound 114, 3-Descladinosyl-3-oxo-6-O-methyl-N9a-desmethyl-11,12-dideoxy-12,11-(oxycarbonylimino)-6′-(2-methoxyamino) Azithromycin], the minimal inhibitory concentration (MIC) was no less than 32 µg/mL in test [1]; no less than 32 µg/mL against S. aureus strain MP-12; no less than 32 µg/mL in test [2]; no more than 4 µg/mL against E. coli strain MP-4; 8 to 32 µg/mL (≈ 11.6 to 46.6 µM) in test [3].
For `CC[C@H]1OC(=O)C(C)C(=O)[C@H](C)[C@@H](O[C@@H]2OC(CNCc3cccc(Oc4cnccn4)c3)CC(N(C)C)C2O)[C@](C)(OC)C[C@@H](C)CN[C@H](C)[C@H]2NC(=O)O[C@@]21C` (stereo partly drawn) [Compound 22], the MIC in test [1] was no less than 32 µg/mL; with S. aureus strain MP-12, no less than 32 µg/mL; in test [2], no less than 32 µg/mL; in the test with E. coli strain MP-4 it was 8 to 32 µg/mL (≈ 9.84 to 39.4 µM); in test [3] it was no less than 32 µg/mL.
Consider `CC[C@H]1OC(=O)C(C)C(=O)[C@H](C)[C@@H](OC2OC(CNCC(=O)N(C)C)CC(N(C)C)C2O)[C@](C)(OC)C[C@@H](C)CN[C@H](C)[C@H]2NC(=O)O[C@@]21C` (stereo partly drawn) [Compound 117, 3-Descladinosyl-3-oxo-6-O-methyl-N9a-desmethyl-11,12-dideoxy-12,11-(oxycarbonylimino)-6′-(N—(N,N-dimethylacetamidyl)-amino) Azithromycin], for which the MIC (in test [1]; in the test with S. aureus strain MP-12; in test [2]; in the test with E. coli strain MP-4; in test [3]) was no less than 32 µg/mL in each case.
As to `CC[C@H]1OC(=O)[C@@]2(C)CCOC(C)(C[C@@H](C)CN[C@H](C)[C@H]3NC(=O)O[C@@]31C)[C@H](O[C@@H]1OC(CNC(C)C)CC(N(C)C)C1O)[C@@H](C)C2=O` (stereo partly drawn) [Compound 213], the MIC in test [1] is no less than 32 µg/mL; in the test with S. aureus strain MP-12 it was no more than 4 µg/mL; in test [2] it was no less than 32 µg/mL; against E. coli strain MP-4 it was no more than 4 µg/mL; in test [3], no more than 4 µg/mL.
For `CC[C@H]1OC(=O)C(C)C(=O)[C@H](C)[C@@H](OC2OC(CN3CC(O)C3)CC(N(C)C)C2O)[C@](C)(OC)C[C@@H](C)CN[C@H](C)[C@H]2NC(=O)O[C@@]21C` (stereo partly drawn) [Compound 128, 3-Descladinosyl-3-oxo-6-O-methyl-N9a-desmethyl-11,12-dideoxy-12,11-(oxycarbonylimino)-6′-(3-hydroxy-1-azetidinyl) Azithromycin], the MIC (in test [1]; in the test with S. aureus strain MP-12; in test [2]; against E. coli strain MP-4; in test [3]) was no less than 32 µg/mL throughout.
As to `CC[C@H]1OC(=O)C(C)C(=O)[C@H](C)[C@@H](O[C@@H]2OC(CNc3ccccn3)CC(N(C)C)C2O)[C@](C)(OC)C[C@@H](C)CN[C@H](C)[C@H]2NC(=O)O[C@@]21C` (stereo partly drawn) [Compound 51], the MIC in test [1] was no less than 32 µg/mL; in the test on S. aureus strain MP-12, no less than 32 µg/mL; in test [2], no less than 32 µg/mL; with E. coli strain MP-4, no more than 4 µg/mL; in test [3] it was 8 to 32 µg/mL (≈ 11.3 to 45.3 µM).
As to `CC[C@H]1OC(=O)C(C)C(=O)[C@H](C)[C@@H](O[C@@H]2OC(CNCc3ccc(C#N)cc3)CC(N(C)C)C2O)[C@](C)(OC)C[C@@H](C)CN[C@H](C)[C@H]2NC(=O)O[C@@]21C` (stereo partly drawn) [Compound 40], the MIC in test [1] was no less than 32 µg/mL; in the test with S. aureus strain MP-12 it was no less than 32 µg/mL; in test [2], no less than 32 µg/mL; in the test on E. coli strain MP-4 it was no more than 4 µg/mL; in test [3], no less than 32 µg/mL.
On to `CC[C@H]1OC(=O)C(C)C(=O)[C@H](C)[C@@H](OC2OC(CNCCC(F)(F)F)CC(N(C)C)C2O)[C@](C)(OC)C[C@@H](C)CN[C@H](C)[C@H]2NC(=O)O[C@@]21C` (stereo partly drawn) [Compound 142, 3-Descladinosyl-3-oxo-6-O-methyl-N9a-desmethyl-11,12-dideoxy-12,11-(oxycarbonylimino)-6′-trifluoropropylamino Azithromycin], for which the MIC is no less than 32 µg/mL in test [1]; 8 to 32 µg/mL (≈ 11 to 44.1 µM) with S. aureus strain MP-12; no less than 32 µg/mL in test [2]; no more than 4 µg/mL against E. coli strain MP-4; 8 to 32 µg/mL (≈ 11 to 44.1 µM) in test [3].
For `CC[C@H]1OC(=O)[C@@]2(C)CCOC(C)(C[C@@H](C)CN(C)[C@H](C)[C@H]3NC(=O)O[C@@]31C)[C@H](O[C@@H]1O[C@H](CNC3CC3)C[C@H](N(C)C)[C@H]1O)[C@@H](C)C2=O` [Compound 208], the MIC is no less than 32 µg/mL in test [1]; no more than 4 µg/mL with S. aureus strain MP-12; 8 to 32 µg/mL (≈ 11.5 to 46 µM) in test [2]; no more than 4 µg/mL against E. coli strain MP-4; no more than 4 µg/mL in test [3].
For `CC[C@H]1OC(=O)C(C)C(=O)[C@H](C)[C@@H](OC2OC(CNC3CCC3)CC(N(C)C)C2O)[C@](C)(OC)C[C@@H](C)CN[C@H](C)[C@H]2NC(=O)O[C@@]21C` (stereo partly drawn) [Compound 120, 3-Descladinosyl-3-oxo-6-O-methyl-N9a-desmethyl-11,12-dideoxy-12,11-(oxycarbonylimino)-6′-cyclobutylamino Azithromycin], the MIC in test [1] is no less than 32 µg/mL; with S. aureus strain MP-12 it was no less than 32 µg/mL; in test [2], no less than 32 µg/mL; against E. coli strain MP-4, no more than 4 µg/mL; in test [3], no more than 4 µg/mL.
